# Experimental data taken from patent US20100130737A1, “Regulating Agent of GPR34 Receptor Function” (TAKEDA PHARMACEUTICAL COMPANY LIMITED, priority 2005, published 2010).
row,Structure (SMILES),melting point
1,"Nc1ccccc1COc1ccc(CC(=O)NC2(C(=O)O)Cc3ccc(-c4ccc(Cl)cc4)cc3C2)cc1 (centres unmarked) [Example B194, 2-[({4-[(2-Aminobenzyl)oxy]phenyl}acetyl)amino]-5-(4-chlorophenyl)indan-2-carboxylic acid]",149 to 150 °C
2,"Cc1c(C(=O)NC2(C(=O)O)Cc3cccc(Br)c3C2)oc2cc(-c3ccc(Cl)cc3)ccc12 (centres unmarked) [Example C113, 4-Bromo-2-({[6-(4-chlorophenyl)-3-methyl-1-benzofuran-2-yl]carbonyl}amino)indan-2-carboxylic acid]",230 °C
3,"Cc1c(C(=O)NC2(C(=O)O)Cc3ccc(Br)cc3C2)oc2cc(-c3ccc(Cl)cc3)ccc12 (centres unmarked) [Example C114, 5-Bromo-2-({[6-(4-chlorophenyl)-3-methyl-1-benzofuran-2-yl]carbonyl}amino)indan-2-carboxylic acid]",227 °C
4,"Cc1c(C(=O)N[C@H](Cc2ccc(OCc3ccccc3)cc2)C(=O)O)oc2cc(-c3ccc(Cl)cc3)ccc12 [Example C116, O-Benzyl-N-{[6-(4-chlorophenyl)-3-methyl-1-benzofuran-2-yl]carbonyl}-D-tyrosine]",113 to 114 °C
5,"Cc1c(C(=O)N[C@@H](Cc2ccc(OCc3ccsc3)cc2)C(=O)O)oc2cc(-c3ccc(Cl)cc3)ccc12 [Example C118, N-{[6-(4-Chlorophenyl)-3-methyl-1-benzofuran-2-yl]carbonyl}-O-(3-thienylmethyl)-L-tyrosine]",111 to 113 °C
6,"Cc1c(C(=O)N[C@@H](Cc2ccc(OCc3ccoc3)cc2)C(=O)O)oc2cc(-c3ccc(Cl)cc3)ccc12 [Example C119, N-{[6-(4-Chlorophenyl)-3-methyl-1-benzofuran-2-yl]carbonyl}-O-(3-furylmethyl)-L-tyrosine]",108 to 110 °C
7,"Cc1ccc(COc2ccc(C[C@H](NC(=O)c3cc4cc(C#Cc5ccccc5)ccc4s3)C(=O)O)cc2)cc1 [Example C140, O-(4-Methylbenzyl)-N-{[5-(phenylethynyl)-1-benzothiophene-2-yl]carbonyl}tyrosine]",204 to 207 °C
8,"Cc1c(C(=O)N[C@@H](Cc2ccc(OCc3ccoc3)cc2)C(=O)O)oc2ccc(-c3ccc(Cl)cc3)cc12 [Example C150, N-{[5-(4-Chlorophenyl)-3-methyl-1-benzofuran-2-yl]carbonyl}-O-(3-furylmethyl)tyrosine]",196 to 197 °C
9,"O=C(N[C@@H](Cc1ccc(OCc2ccoc2)cc1)C(=O)O)c1cc2ccc(-c3ccc(Cl)cc3)cc2o1 [Example C151, N-{[6-(4-Chlorophenyl)-1-benzofuran-2-yl]carbonyl}-O-(3-furylmethyl)tyrosine]",159 to 160 °C
10,"Cc1c(C(=O)N[C@H](C(=O)O)c2ccc(OCc3ccccc3)cc2)oc2cc(-c3ccc(Cl)cc3)ccc12 [Example C156, (2S)-[4-(Benzyloxy)phenyl]({[6-(4-chlorophenyl)-3-methyl-1-benzofuran-2-yl]carbonyl}amino)acetic acid]",178 °C
11,"N#Cc1ccc(COc2ccc(C[C@H](NC(=O)c3cc4ccc(-c5ccc(Cl)cc5)cc4o3)C(=O)O)cc2)cc1 [Example C160, N-{[6-(4-Chlorophenyl)-1-benzofuran-2-yl]carbonyl}-O-(4-cyanobenzyl)tyrosine]",204 °C
12,O=C(NC(Cc1ccc(OCc2ccc(C(F)(F)F)cc2)cc1)C(=O)O)c1cc2ccc(-c3ccc(Cl)cc3)cc2o1 (centres unmarked) [Example C162],203 °C
13,"O=C(/C=C/c1cccc(-c2ccc(Cl)cc2)n1)NC(Cc1ccc(OCc2ccccc2)cc1)C(=O)O (centres unmarked) [Example D3, O-Benzyl-N-{3-[6-(4-chlorophenyl)pyridin-2-yl]acryloyl}tyrosine]",226 to 228 °C
14,"O=C(/C=C/c1ccc(-c2ccc(Cl)cc2)o1)N[C@@H](Cc1ccc(OCc2ccccc2)cc1)C(=O)O [Example D4, O-Benzyl-N-{(2E)-3-[5-(4-chlorophenyl)-2-furyl]propa-2-enoyl}tyrosine]",224 to 225 °C
15,"O=C(N[C@@H](Cc1ccc(OCc2ccsc2)cc1)C(=O)O)c1cn2cc(-c3ccc(Cl)cc3)ccc2n1 [Example E2, N-{[6-(4-Chlorophenyl)imidazo[1,2-a]pyridin-2-yl]carbonyl}-O-(3-thienylmethyl)-L-tyrosine]",203 °C
16,"O=C(N[C@@H](Cc1ccc(OCc2ccccc2)cc1)C(=O)O)c1cn2cc(-c3ccc(Cl)cc3)cnc2n1 [Example E4, O-Benzyl-N-{[6-(4-chlorophenyl)imidazo[1,2-a]pyrimidin-2-yl]carbonyl}tyrosine]",252 to 253 °C
17,O=C(NC(Cc1ccc(OCc2ccccc2F)cc1)C(=O)O)c1cn2cc(-c3ccc(Cl)cc3)ccc2n1 (centres unmarked) [Example E6],273 °C
18,O=C(NC(Cc1ccc(OCc2ccc(F)cc2)cc1)C(=O)O)c1cn2cc(-c3ccc(Cl)cc3)ccc2n1 (centres unmarked) [Example E7],267 °C

# More lines, now with the values ahead:
row,melting point,Structure (SMILES)
1,200 to 201 °C,"O=C(N[C@@H](Cc1ccc(OCc2ccoc2)cc1)C(=O)O)c1cc2ccc(-c3ccc(Cl)cc3)cc2s1 [Example C124, N-{[6-(4-Chlorophenyl)-1-benzothiophene-2-yl]carbonyl}-O-(3-furylmethyl) tyrosine]"
2,172 to 173 °C,"O=C(N[C@@H](Cc1ccc(OCc2ccoc2)cc1)C(=O)O)c1cc2cc(-c3ccc(Cl)cc3)ccc2s1 [Example C125, N-{[5-(4-Chlorophenyl)-1-benzothiophene-2-yl]carbonyl}-O-(3-furylmethyl) tyrosine]"
3,184 to 185 °C,"O=C(N[C@@H](Cc1ccc(OCc2cccc(F)c2)cc1)C(=O)O)c1cc2cc(-c3ccc(Cl)cc3)ccc2s1 [Example C126, N-{[5-(4-Chlorophenyl)-1-benzothiophene-2-yl]carbonyl}-O-(3-fluorobenzyl) tyrosine]"
4,192 to 193 °C,"Cc1cccc(COc2ccc(C[C@H](NC(=O)c3cc4cc(-c5ccc(Cl)cc5)ccc4s3)C(=O)O)cc2)c1 [Example C127, N-{[5-(4-Chlorophenyl)-1-benzothiophene-2-yl]carbonyl}-O-(3-methylbenzyl)tyrosine]"
5,175 to 177 °C,"COc1cccc(COc2ccc(C[C@H](NC(=O)c3cc4cc(-c5ccc(Cl)cc5)ccc4s3)C(=O)O)cc2)c1 [Example C128, N-{[5-(4-Chlorophenyl)-1-benzothiophene-2-yl]carbonyl}-O-(3-methoxybenzyl)tyrosine]"
6,204 to 205 °C,"CC(C)Oc1ccc(-c2ccc3sc(C(=O)N[C@@H](Cc4ccc(OCc5ccc(F)cc5)cc4)C(=O)O)cc3c2)cc1 [Example C130, O-(4-Fluorobenzyl)-N-{[5-(4-isopropoxyphenyl)-1-benzothiophene-2-yl]carbonyl}tyrosine]"
7,208 °C,"Cc1ccc(COc2ccc(C[C@H](NC(=O)c3cc4cc(-c5ccc(Cl)cc5)ccc4s3)C(=O)O)cc2)cc1 [Example C134, N-{[5-(4-Chlorophenyl)-1-benzothiophene-2-yl]carbonyl}-O-(4-methylbenzyl)tyrosine]"
8,196 to 197 °C,"O=C(N[C@@H](Cc1ccc(OCc2ccc(Cl)cc2)cc1)C(=O)O)c1cc2cc(-c3ccc(Cl)cc3)ccc2s1 [Example C135, O-(4-Chlorobenzyl)-N-{[5-(4-chlorophenyl)-1-benzothiophene-2-yl]carbonyl}tyrosine]"
9,164 °C,"N#Cc1ccc(COc2ccc(C[C@H](NC(=O)c3cc4cc(-c5ccc(Cl)cc5)ccc4s3)C(=O)O)cc2)cc1 [Example C136, N-{[5-(4-Chlorophenyl)-1-benzothiophene-2-yl]carbonyl)-O-(4-cyanobenzyl)tyrosine]"
10,205 °C,"CCc1ccc(COc2ccc(C[C@H](NC(=O)c3cc4cc(-c5ccc(Cl)cc5)ccc4s3)C(=O)O)cc2)cc1 [Example C137, N-{[5-(4-Chlorophenyl)-1-benzothiophene-2-yl]carbonyl}-O-(4-ethylbenzyl)tyrosine]"
11,198 °C,"O=C(N[C@@H](Cc1ccc(OCc2ccc(C(F)(F)F)cc2)cc1)C(=O)O)c1cc2cc(-c3ccc(Cl)cc3)ccc2s1 [Example C138, N-{[5-(4-Chlorophenyl)-1-benzothiophene-2-yl]carbonyl}-O-[4-(trifluoromethyl)benzyl]tyrosine]"
12,216 to 221 °C,"O=C(NC(Cc1ccc(OCc2ccc(Cl)cc2)cc1)C(=O)O)c1cc2cc(C#Cc3ccccc3)ccc2s1 (centres unmarked) [Example C141, O-(4-Chlorolbenzyl)-N-{[5-(phenylethynyl)-1-benzothiophene-2-yl]carbonyl)tyrosine]"
13,250 °C,Nc1c(C(=O)NC(Cc2ccc(OCc3ccccc3)cc2)C(=O)O)oc2ccc(-c3ccc(Cl)cc3)cc12 (centres unmarked) [Example C149]
14,211 to 212 °C,"O=C(N[C@@H](Cc1ccc(OCc2ccoc2)cc1)C(=O)O)c1cc2cc(-c3ccc(Cl)cc3)ccc2o1 [Example C152, N-{[5-(4-Chlorophenyl)-1-benzofuran-2-yl]carbonyl}-O-(3-furylmethyl)tyrosine]"
15,157 to 158 °C,"Cc1cccc(COc2ccc(C[C@H](NC(=O)c3cc4ccc(-c5ccc(Cl)cc5)cc4o3)C(=O)O)cc2)c1 [Example C154, N-{[6-(4-Chlorophenyl)-1-benzofuran-2-yl]carbonyl}-O-(3-methylbenzyl)tyrosine]"
16,150 to 151 °C,"COc1cccc(COc2ccc(C[C@H](NC(=O)c3cc4ccc(-c5ccc(Cl)cc5)cc4o3)C(=O)O)cc2)c1 [Example C155, N-{[6-(4-Chlorophenyl)-1-benzofuran-2-yl]carbonyl}-O-(3-methoxybenzyl)tyrosine]"
17,204 °C,Cc1ccc(COc2ccc(CC(NC(=O)c3cc4ccc(-c5ccc(Cl)cc5)cc4o3)C(=O)O)cc2)cc1 (centres unmarked) [Example C158]
18,195 °C,"O=C(N[C@@H](Cc1ccc(OCc2ccc(Cl)cc2)cc1)C(=O)O)c1cc2ccc(-c3ccc(Cl)cc3)cc2o1 [Example C159, O-(4-Chlorobenzyl)-N-{[6-(4-chlorophenyl)-1-benzofuran-2-yl]carbonyl}tyrosine]"
19,194 °C,"CCc1ccc(COc2ccc(C[C@H](NC(=O)c3cc4ccc(-c5ccc(Cl)cc5)cc4o3)C(=O)O)cc2)cc1 [Example C161, N-{[6-(4-Chlorophenyl)-1-benzofuran-2-yl]carbonyl)-O-(4-ethylbenzyl)tyrosine]"
20,258 to 259 °C,O=C(NC(Cc1ccc(OCc2ccc(F)cc2)cc1)C(=O)O)c1nc2ccc(-c3ccc(Cl)cc3)cc2[nH]1 (centres unmarked) [Example C168]
